Reference: patent US20220257592A1, “METHODS OF TREATING CANCER” (HOFFMANN-LA ROCHE INC., priority 2019, published 2022)

Legend:
[1] = molecular target: cytochrome P450 3A4 (CYP3A4) (Homo sapiens, UniProt P08684); assay: In vitro metabolism studies; assay type: in vitro ADME
[2] = molecular target: anaplastic lymphoma kinase (ALK) (Homo sapiens, UniProt Q9UM73); conditions: cited from earlier work
[3] = Expanded safety population (338 adult and 30 pediatric patients), fractures; assay type: in vivo, human
Description: In adult patients, some fractures occurred in the setting of a fall or other trauma to the affected area, while in pediatric patients, all fractures occurred in patients with minimal or no trauma. In general, there was inadequate assessment for tumor involvement at the site of fracture; however, radiologic abnormalities possibly indicative of tumor involvement were reported in some patients. In both adult and pediatric patients, most fractures were hip or other lower extremity fractures (e.g., femoral or tibial shaft). In a limited number of patients, bilateral femoral neck fractures occurred. The median time to fracture was 3.8 months (range 0.3 to 18.5 months) in adults and 4.0 months (range: 1.8 months to 7.4 months) in pediatric patients.

**Q.** Which CYP3A4 substrate status [1] does the source give for `CN1CCN(c2ccc(C(=O)Nc3n[nH]c4ccc(Cc5cc(F)cc(F)c5)cc34)c(NC3CCOCC3)c2)CC1` [Entrectinib, N-[5-(3,5-difluorobenzyl)-1H-indazol-3-yl]-4-(4-methyl-piperazin-1-yl)-2-(tetrahydro-pyran-4-ylamino)-benzamide] here?
**A.** sensitive substrate of CYP3A4

**Q.** What about the route of clearance ([1]; in vitro studies) of the same compound?
**A.** predominantly through hepatic metabolism

**Q.** And the “share of metabolism by CYP3A4” value ([1]; in vitro studies)?
**A.** ~76%

**Q.** And the “inhibition of ALK tyrosine kinase” value [2]?
**A.** potent inhibitor

**Q.** What about the Fractures ([3]; 30 pediatric patients) of the same compound?
**A.** 23%

**Q.** And the Fractures ([3]; 338 adult patients)?
**A.** 5%

**Q.** And the “Entrectinib interrupted due to fractures” value ([3]; adults)?
**A.** 41%

**Q.** What about the “Median time to fracture” value ([3]; adults, range 0.3 to 18.5 months) of the same compound?
**A.** 3.8 months

**Q.** And the “Discontinuation due to fractures” value ([3]; human, in vivo)?
**A.** No patients discontinued

**Q.** What about the Risk of fractures ([3]; human, in vivo) of the same compound?
**A.** increases the risk of fractures

**Q.** What about the “Entrectinib interrupted due to fractures” value ([3]; pediatric patients) of the same compound?
**A.** 43%

**Q.** And the “Median time to fracture” value ([3]; pediatric patients, range: 1.8 months to 7.4 months)?
**A.** 4.0 months
